Measurements published in paper PMC11898701, “Evaluating Therapeutic Efficacy of the Vascular Disrupting Agent OXi8007 Against Kidney Cancer in Mice” (Cancers, 2025).
Like-named read-outs stand apart in the source and are kept apart here.

Assay: Pharmacokinetic study in Renca-luc tumor-bearing BALB/c mice
Assay type: in vivo, mouse
Conditions: glucuronide metabolite, after OXi8007 250 mg/kg; for half-life / Tmax: male, BALB/c, mouse, ip; for Tmax: read-out: Tmax (converted)
Method: Plasma and tissues were harvested at various time points (20 min to 16 h) from Renca-luc tumor-bearing BALB/c male mice following the administration of OXi8007 IP. Mice treated with 250 mg/kg were sacrificed at 20 min (n = 3), 1 h (n = 4), 2 h (n = 4), 4 h (n = 4), 8 h (n = 4), and 16 h (n = 4). Mice were anesthetized, exsanguinated, the tissues were blotted, and then they were weighed and frozen in liquid nitrogen. Homogenized plasma and tissue samples were extracted with acetonitrile with a bead mill; internal standard (CA4 or tri-labeled ^13C-OXi8006) was added to each sample to reach a final concentration of 10 ppb. Samples were centrifuged twice to remove precipitated proteins (16,260× g for 10 min at 4 °C). Clear supernatant was transferred into MS vials, and formic acid was added to a final concentration of 0.1% for LC-MS analysis. […] Mobile phase A consisted of 0.1% v/v formic acid in water, and mobile phase B was acetonitrile, which was mixed by the binary pump with an elution gradient at a flow rate of 0.6 mL/min. Data were analyzed using Xcalibur 4.6 software based on exact masses, and Phoenix WinNonlin 8.5.0 software was used to determine the pharmacokinetic parameters based on a non-compartmental model.

SMILES: COc1ccc2c(C(=O)c3cc(OC)c(OC)c(OC)c3)c(-c3ccc(OC)c(O[C@@H]4O[C@H](C(=O)O)[C@@H](O)[C@H](O)[C@H]4O)c3)[nH]c2c1 [OXi8006 Glucuronide]
- Cmax (brain, counts per tissue sample (40 mg)): 0.95 counts × 10^−6
- AUC (brain): 4.13 h × counts × 10^−6
- Cmax (heart, counts per tissue sample (40 mg)): 9.8 counts × 10^−6
- AUC (heart): 24.52 h × counts × 10^−6
- Cmax (left kidney, counts per tissue sample (40 mg)): 87.2 counts × 10^−6
- AUC (left kidney): 180.6 h × counts × 10^−6
- Cmax (liver, counts per tissue sample (40 mg)): 28.23 counts × 10^−6
- AUC (liver): 128.7 h × counts × 10^−6
- Cmax (lungs, counts per tissue sample (40 mg)): 20.87 counts × 10^−6
- AUC (lungs): 69.33 h × counts × 10^−6
- Cmax (plasma, counts per mL, no precise calibration): 1266 counts × 10^−6
- AUC (plasma, no precise calibration): 3490 h × counts × 10^−6
- Cmax (spleen, counts per tissue sample (40 mg)): 6.33 counts × 10^−6
- AUC (spleen): 18.39 h × counts × 10^−6
- Cmax (tumor, counts per tissue sample (40 mg)): 11.65 counts × 10^−6
- AUC (tumor): 118.22 h × counts × 10^−6
- half-life (brain): 1.15 h
- Tmax (brain): 1 h
- half-life (heart): 1.61 h
- Tmax (heart): 1 h
- half-life (left kidney): 3.75 h
- Tmax (left kidney): 1 h
- half-life (liver): 3.37 h
- Tmax (liver): 1 h
- half-life (lungs): 2.05 h
- Tmax (lungs): 1 h
- half-life (plasma): 1.95 h
- Tmax (plasma): 1 h
- half-life (spleen): 2.2 h
- Tmax (spleen): 1 h
- half-life (tumor): 5.87 h
- Tmax (tumor): 4 h
